Measured values: patent US10787462B2, “Heterocyclic compound” (TAKEDA PHARMACEUTICAL COMPANY LIMITED, priority 2015, dated 2020)

Target: T1, human RIPK1 (1-375) (Homo sapiens, UniProt Q13546)
T1 construct: human RIPK1 (1-375) gene; GST; made in house; host or cells: Sf-9 insect cells
T1 sequence (Q13546 1-375): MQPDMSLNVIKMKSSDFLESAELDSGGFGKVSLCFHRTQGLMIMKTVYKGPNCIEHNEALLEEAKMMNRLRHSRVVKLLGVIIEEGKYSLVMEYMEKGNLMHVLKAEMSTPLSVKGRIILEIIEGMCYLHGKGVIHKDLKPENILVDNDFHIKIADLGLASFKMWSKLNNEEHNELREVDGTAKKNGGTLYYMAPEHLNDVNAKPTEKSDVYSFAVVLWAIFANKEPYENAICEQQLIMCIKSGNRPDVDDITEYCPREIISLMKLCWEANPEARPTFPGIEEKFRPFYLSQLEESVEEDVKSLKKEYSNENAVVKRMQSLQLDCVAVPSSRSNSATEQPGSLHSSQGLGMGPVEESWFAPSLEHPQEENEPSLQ
Assay: Human RIPK1 enzyme inhibitory effect (ADP-Glo Kinase Assay)
Assay type: biochemical
Conditions: well without enzyme = 100% inhibition; for inhibition at 10 µM: read-out: human RIPK1 enzyme inhibitory effect at 10 μM (% inhibition), 10 μM test compound; for human RIPK1 enzyme inhibitory effect at 10 μM (% inhibition): 10 μM test compound
Method in brief: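 ADP-Glo luminescence read-out of ADP formed over 120 min at room temperature after adding 0.6 mM ATP solution (stock concentration). Compound and Sf-9-expressed, GST-purified RIPK1 (1-375) were first incubated together for 20 min in HEPES pH 7.5 buffer with MgCl2, Tween-20 and DTT.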

Compound | inhibition at 10 µM [%] | human RIPK1 enzyme inhibitory effect at 10 μM (% inhibition) [%]
CN1C(=O)[C@@H](N2CCc3c(nn(Cc4ccccc4)c3Cl)C2=O)COc2cc(C(N)=O)ccc21 [Example 64, (3S)-3-(2-benzyl-3-chloro-7-oxo-2,4,5,7-tetrahydro-6H-pyrazolo[3,4-c]pyridin-6-yl)-5-methyl-4-oxo-2,3,4,5-tetrahydro-1,5-benzoxazepine-8-carboxamide] | 101 | –
Cc1nccnc1Cn1nc2c(c1Cl)CCN([C@H]1COc3ccccc3N(C)C1=O)C2=O [Example 73, (3S)-3-(3-chloro-2-((3-methylpyrazin-2-yl)methyl)-7-oxo-2,4,5,7-tetrahydro-6H-pyrazolo[3,4-c]pyridin-6-yl)-5-methyl-2,3-dihydro-1,5-benzoxazepin-4(5H)-one] | 91 | –
CN1C(=O)C(N2CCc3c(nn(Cc4ccccc4)c3Cl)C2=O)CCc2cn(C)nc21 (centres unmarked) [Example 114, 6-(2-benzyl-3-chloro-7-oxo-2,4,5,7-tetrahydro-6H-pyrazolo[3,4-c]pyridin-6-yl)-2,8-dimethyl-2,5,6,8-tetrahydropyrazolo[3,4-b]azepin-7(4H)-one] | – | 101
CN1C(=O)[C@@H](N2CCc3cn(Cc4ccccc4)nc3C2=O)COc2ccc(Br)cc21 [Example 40, (3S)-3-(2-benzyl-7-oxo-2,4,5,7-tetrahydro-6H-pyrazolo[3,4-c]pyridin-6-yl)-7-bromo-5-methyl-2,3-dihydro-1,5-benzoxazepin-4(5H)-one] | 100 | –
CN1C(=O)[C@@H](N2CCc3c(nn(Cc4cnccn4)c3Cl)C2=O)COc2ccc(F)cc21 [Example 143, (3S)-3-(3-chloro-7-oxo-2-(pyrazin-2-ylmethyl)-2,4,5,7-tetrahydro-6H-pyrazolo[3,4-c]pyridin-6-yl)-7-fluoro-5-methyl-2,3-dihydro-1,5-benzoxazepin-4(5H)-one] | 100 | –
Cc1c2c(nn1Cc1ccccc1F)C(=O)N([C@H]1COc3cc(Br)ccc3N(C)C1=O)CC2 [Example 109, (3S)-8-bromo-3-(2-(2-fluorobenzyl)-3-methyl-7-oxo-2,4,5,7-tetrahydro-6H-pyrazolo[3,4-c]pyridin-6-yl)-5-methyl-2,3-dihydro-1,5-benzoxazepin-4(5H)-one] | 100 | –
CN1C(=O)C(N2CCc3c(nn(Cc4ccccc4)c3Cl)C2=O)CCc2ccncc21 (centres unmarked) [Example 102, 3-(2-benzyl-3-chloro-7-oxo-2,4,5,7-tetrahydro-6H-pyrazolo[3,4-c]pyridin-6-yl)-1-methyl-1,3,4,5-tetrahydro-2H-pyrido[3,4-b]azepin-2-one] | – | 88
CN1C(=O)[C@@H](N2CCc3cn(Cc4ccoc4)nc3C2=O)COc2ccccc21 [Example 34, (3S)-3-(2-(3-furylmethyl)-7-oxo-2,4,5,7-tetrahydro-6H-pyrazolo[3,4-c]pyridin-6-yl)-5-methyl-2,3-dihydro-1,5-benzoxazepin-4(5H)-L-one] | 99 | –
CN1C(=O)[C@@H](N2CCc3cn(CC4(C)COC4)nc3C2=O)COc2ccccc21 [Example 154, (3S)-5-methyl-3-(2-((3-methyloxetan-3-yl)methyl)-7-oxo-2,4,5,7-tetrahydro-6H-pyrazolo[3,4-c]pyridin-6-yl)-2,3-dihydro-1,5-benzoxazepin-4(5H)-one] | 78 | –
CNC(=O)c1ccc2c(c1)OC[C@H](N1CCc3c(nn(Cc4ccccc4F)c3C)C1=O)C(=O)N2C [Example 115, (3S)-3-(2-(2-fluorobenzyl)-3-methyl-7-oxo-2,4,5,7-tetrahydro-6H-pyrazolo[3,4-c]pyridin-6-yl)-N,5-dimethyl-4-oxo-2,3,4,5-tetrahydro-1,5-benzoxazepine-8-carboxamide] | 101 | –
CN1C(=O)[C@@H](N2CCc3ccc(Cc4ccccc4)nc3C2=O)COc2ccccc21 [Example 17, (3S)-3-(2-benzyl-8-oxo-5,8-dihydro-1,7-naphthyridin-7(6H)-yl)-5-methyl-2,3-dihydro-1,5-benzoxazepin-4(5H)-one] | 97 | –
